The target in one experiment is T1, rat calcitonin receptor (Rattus norvegicus, UniProt P32214).
T1 construct: expressed in transfected cells; host or cells: BHK tk'ts 13 (transient, FuGENE 6), membranes
T1 sequence (P32214 25-479 isoform P32214-2 limits assumed): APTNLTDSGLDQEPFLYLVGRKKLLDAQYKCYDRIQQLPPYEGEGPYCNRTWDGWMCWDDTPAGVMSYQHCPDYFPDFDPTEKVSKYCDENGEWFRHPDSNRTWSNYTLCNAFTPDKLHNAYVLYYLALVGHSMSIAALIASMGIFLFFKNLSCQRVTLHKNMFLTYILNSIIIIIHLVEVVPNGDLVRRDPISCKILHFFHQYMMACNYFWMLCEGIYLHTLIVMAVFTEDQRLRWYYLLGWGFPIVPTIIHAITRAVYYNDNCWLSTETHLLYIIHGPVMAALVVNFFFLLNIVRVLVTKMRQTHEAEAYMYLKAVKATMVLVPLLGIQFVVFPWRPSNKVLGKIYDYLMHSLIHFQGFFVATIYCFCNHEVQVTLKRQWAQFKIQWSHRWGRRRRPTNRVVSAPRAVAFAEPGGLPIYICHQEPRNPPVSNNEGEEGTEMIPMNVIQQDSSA
As to the kind of experiment: ASSAY (VIII) binding to the rat calcitonin receptor. Conditions: Table 7, read-out: rCTR bind IC50. In a few lines: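 Transfect BHK tk′ts 13 cells transiently with rat calcitonin receptor, culture in DMEM containing 10% FBS, collect cells about 48 hours later, then prepare membranes.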

Experiment [1] addresses T2, human amylin receptor (membranes from Amylin 3(a)/CRE-luc cells) (Homo sapiens, UniProt O60896+P30988).
T2 construct: expressed in transfected cells
T2 sequence (P30988 25-474): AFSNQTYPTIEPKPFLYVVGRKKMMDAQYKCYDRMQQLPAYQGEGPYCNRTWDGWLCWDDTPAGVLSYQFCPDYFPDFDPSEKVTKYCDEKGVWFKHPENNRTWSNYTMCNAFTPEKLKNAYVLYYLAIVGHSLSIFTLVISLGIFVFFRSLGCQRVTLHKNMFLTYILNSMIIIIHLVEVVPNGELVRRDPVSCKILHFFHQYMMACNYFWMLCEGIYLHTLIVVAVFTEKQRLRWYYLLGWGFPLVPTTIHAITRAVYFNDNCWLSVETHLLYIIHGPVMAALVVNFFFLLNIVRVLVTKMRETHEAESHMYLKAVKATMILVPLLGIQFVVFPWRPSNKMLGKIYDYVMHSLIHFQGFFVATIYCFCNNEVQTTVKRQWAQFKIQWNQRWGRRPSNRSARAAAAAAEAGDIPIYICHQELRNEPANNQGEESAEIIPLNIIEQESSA
T2 sequence (O60896 24-148 partner): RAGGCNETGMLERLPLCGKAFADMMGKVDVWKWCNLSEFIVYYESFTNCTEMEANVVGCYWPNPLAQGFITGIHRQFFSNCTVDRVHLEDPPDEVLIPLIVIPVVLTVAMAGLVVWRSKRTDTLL
As to the kind of experiment: ASSAY (V) binding to the human amylin receptor (SPA, 125I-rat amylin).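 For all read-outs here: competition binding of cell membranes (35 ng/µL) mixed with SPA beads in 384-well plates at 40 µL total volume, read by scintillation counting.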 As to conditions: for IC50: Table 4, read-out: hAmylin-R bind IC50.
Description: The binding assay was performed using scintillation proximity assay (SPA) beads (RPNQ0001) from PerkinElmer and cell membranes from the Amylin 3(a)/CRE-luc cells (as described in Assay (II)) were used. Membranes were prepared in the following way; the cells were rinsed with PBS and incubated with Versene for approximately 5 min before harvesting. The cells were flushed with PBS and the cell-suspension was centrifuged for 5 min at 1000 rpm. […] The resulting pellet was resuspended in buffer 2 and protein concentration was measured (BCA protein Assay, Pierce). The homogenate was kept cold during the whole procedure. The membranes were kept at −80° C. until use. The assay was performed in a 384 well Optiplate (PerkinElmer) in a total volume of 40 ul. Membranes were mixed with SPA beads. Final concentration of membranes 35 ng/μL final and SPA beads was 0.05 mg/well. Test-compounds were dissolved in DMSO and further diluted in assay buffer (50 mM Hepes, pH 7.4, 1 mM CaCl2, 5 mM MgCl2, 0.1% OA and 0.02% Tween20). […] Samples were analyzed on TopCounter™ (Packard). The IC50 was calculated using (one site binding competition analysis) GraphPad Prism5 as a measure of receptor affinity.

Experiment [2] concerns the target T3, human amylin 3(a) receptor (human calcitonin receptor + RAMP-3) in BHK570 cells (Homo sapiens, UniProt O60896+P30988).
T3 construct: expressed in transfected cells
Put plainly: ASSAY (II)a functional assay, human amylin receptor (CRE luciferase). The format is cell-based. As to conditions: for EC50: human amylin receptor functional potency, assay (II), read-out: hAmylin-R funct. EC50. The gist of the method: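 BHK CRE-luc cells, calcitonin (a) receptor ± RAMP-3 (amylin 3(a)); overnight seeding, 37° C/5% CO2. 3 h ligand exposure, DMEM/10% FBS/10 mM Hepes pH 7.4. LucLite 30 min RT; luminescence (SPC).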

Setting [3] is: Table 5, selectivity, hCTR bind IC50 / hAmylin-R bind IC50.
The mark [4] stands for this setting: Table 5a, selectivity, hCTR bind IC50 / hAmylin-R bind IC50.
Where [5] appears, read: Table 5b, selectivity, hCTR bind IC50 / hAmylin-R bind IC50.
Setting [6] is: Table 5c, selectivity, hCTR bind IC50 / hAmylin-R bind IC50.
The mark [7] stands for this setting: Table 7, human binding selectivity, included for comparison.
The mark [8] stands for this setting: Table 7a (preferred compounds), human binding selectivity, included for comparison.
[9] abbreviates: ratio of human calcitonin receptor binding IC50 to human amylin receptor binding IC50.
[10] abbreviates: hCTR funct. EC50 divided by hAmylin-R funct. EC50.
Where [11] appears, read: hCTR funct. EC50 over hAmylin-R funct. EC50.
The mark [12] stands for this setting: human functional selectivity: hCTR funct. EC50 / hAmylin-R funct. EC50.

Molecules are shown by their SMILES. Numbered stars: 1 amine (or outer) side, 2 acyl side, 3 side chain; on linkers, the order of the positions; unused ones are H or OH. Bridge positions count the residues as written; N and C are the ends. Side chains are listed from the residue outwards. Peptide text beside a SMILES is read from it. * marks the point of attachment. C20 diacid = O=C(O)CCCCCCCCCCCCCCCCCCC(=O)*; γGlu = O=C(O)[C@H](CCC(=O)[*:2])N[*:1]

This note sets out measurements from patent publication US9023789B2, “Amylin analogs and pharmaceutical compositions thereof” (Novo Nordisk A/S, priority 2012, dated 2015).

As for `CC[C@H](C)[C@H](NC(=O)[C@H](C)NC(=O)CNC(=O)[C@H](Cc1ccccc1)NC(=O)[C@H](CC(N)=O)NC(=O)[C@@H]1CCCN1C(=O)[C@H](CO)NC(=O)[C@H](CO)NC(=O)[C@H](Cc1c[nH]cn1)NC(=O)[C@H](CCCNC(=N)N)NC(=O)[C@H](CC(C)C)NC(=O)[C@H](Cc1ccccc1)NC(=O)[C@H](CC(N)=O)NC(=O)[C@H](C)NC(=O)[C@H](CC(C)C)NC(=O)[C@H](CCCNC(=N)N)NC(=O)[C@H](CCC(N)=O)NC(=O)[C@@H](NC(=O)[C@H](C)NC(=O)[C@@H]1CSSC[C@H](NC(=O)[C@@H](N)CCCCNC(=O)COCCOCCNC(=O)COCCOCCNC(=O)CC[C@H](NC(=O)CCCCCCCCCCCCCCCCCCC(=O)O)C(=O)O)C(=O)N[C@@H](CC(N)=O)C(=O)N[C@@H]([C@@H](C)O)C(=O)N[C@@H](C)C(=O)N[C@@H]([C@@H](C)O)C(=O)N1)[C@@H](C)O)C(=O)N1CCC[C@H]1C(=O)N[C@@H](CO)C(=O)N[C@@H](CO)C(=O)N[C@H](C(=O)N[C@@H](CC(N)=O)C(=O)N[C@H](C(=O)NCC(=O)N[C@@H](CO)C(=O)N[C@@H](CCC(=O)O)C(=O)N[C@H](C(=O)N[C@@H](Cc1ccc(O)cc1)C(N)=O)[C@@H](C)O)C(C)C)[C@@H](C)O` [Example 25], the half-maximal inhibitory concentration (IC50) on rat calcitonin receptor came out at 131 nM. The “Ratio hCT/hAmylin binding” value in experiment [1] (setting [3]), in experiment [1] (setting [4]), in experiment [1] (setting [5]), in experiment [1] (setting [6]), in experiment [1] (setting [7]) and in experiment [1] (setting [8]) was 56.5 throughout. In addition, the “Ratio hCT/hAmylin binding” value in experiment [1] (setting [9]) worked out at 56.5. For the same compound, the “Ratio hCT/hAmylin funct.” value in experiment [2] (setting [10]), in experiment [2] (setting [11]) and in experiment [2] (setting [12]) was 46.2 in each case.

On to `CC[C@H](C)[C@H](NC(=O)[C@H](C)NC(=O)CNC(=O)[C@H](Cc1ccccc1)NC(=O)[C@H](CC(N)=O)NC(=O)[C@@H]1CCCN1C(=O)[C@H](CO)NC(=O)[C@H](CO)NC(=O)[C@H](Cc1c[nH]cn1)NC(=O)[C@H](CCCNC(=N)N)NC(=O)[C@H](CC(C)C)NC(=O)[C@H](Cc1ccccc1)NC(=O)[C@H](CC(N)=O)NC(=O)[C@H](C)NC(=O)[C@H](CC(C)C)NC(=O)[C@H](CCCNC(=N)N)NC(=O)[C@H](CCC(N)=O)NC(=O)[C@@H](NC(=O)[C@H](C)NC(=O)[C@@H]1CSSC[C@H](NC(=O)[C@@H](N)CCCCNC(=O)CC[C@H](NC(=O)CC[C@H](NC(=O)CCCCCCCCCCCCCCCCCCC(=O)O)C(=O)O)C(=O)O)C(=O)N[C@@H](CC(N)=O)C(=O)N[C@@H]([C@@H](C)O)C(=O)N[C@@H](C)C(=O)N[C@@H]([C@@H](C)O)C(=O)N1)[C@@H](C)O)C(=O)N1CCC[C@H]1C(=O)N[C@@H](CO)C(=O)N[C@@H](CO)C(=O)N[C@H](C(=O)N[C@@H](CC(N)=O)C(=O)N[C@H](C(=O)NCC(=O)N[C@@H](Cc1c[nH]cn1)C(=O)N[C@@H](CC(N)=O)C(=O)N[C@H](C(=O)N[C@@H](Cc1ccc(O)cc1)C(N)=O)[C@@H](C)O)C(C)C)[C@@H](C)O` [Example 86] (H-K([γGlu-γGlu-C20 diacid])CNTATCATQRLANFLRHSSPNFGAIPSSTNVGHNTY-NH2; disulfide 2-7), for which the IC50 at rat calcitonin receptor was found to be 352 nM; in experiment [1], 0.833 nM. The “Ratio hCT/hAmylin binding” value in experiment [1] (setting [3]), in experiment [1] (setting [4]), in experiment [1] (setting [5]), in experiment [1] (setting [6]), in experiment [1] (setting [7]) and in experiment [1] (setting [8]) was 159.3 in each case. Moreover, the “Ratio hCT/hAmylin binding” value in experiment [1] (setting [9]) is reported as 159.3. For the same compound, the “Ratio hCT/hAmylin funct.” value in experiment [2] (setting [10]), in experiment [2] (setting [11]) and in experiment [2] (setting [12]) was 64.4 each time. Moreover, the 50% effective concentration (EC50) in experiment [2] is 0.298 nM.

`CC[C@H](C)[C@H](NC(=O)[C@H](C)NC(=O)CNC(=O)[C@H](Cc1ccccc1)NC(=O)[C@H](CC(N)=O)NC(=O)[C@@H]1CCCN1C(=O)[C@H](CO)NC(=O)[C@H](CO)NC(=O)[C@H](Cc1c[nH]cn1)NC(=O)[C@H](CCCNC(=N)N)NC(=O)[C@H](CC(C)C)NC(=O)[C@H](Cc1ccccc1)NC(=O)[C@H](C)NC(=O)[C@H](C)NC(=O)[C@H](CC(C)C)NC(=O)[C@H](CCCNC(=N)N)NC(=O)[C@H](CCC(N)=O)NC(=O)[C@@H](NC(=O)[C@H](C)NC(=O)[C@@H]1CSSC[C@H](NC(=O)[C@@H](N)CCCCNC(=O)CC[C@H](NC(=O)CCCCCCCCCCCCCCCCCCC(=O)O)C(=O)O)C(=O)N[C@@H](CC(N)=O)C(=O)N[C@@H]([C@@H](C)O)C(=O)N[C@@H](C)C(=O)N[C@@H]([C@@H](C)O)C(=O)N1)[C@@H](C)O)C(=O)N1CCC[C@H]1C(=O)N[C@@H](CO)C(=O)N[C@@H](CO)C(=O)N[C@H](C(=O)N[C@@H](CC(N)=O)C(=O)N[C@H](C(=O)NCC(=O)N1CCC[C@H]1C(=O)N[C@@H](CC(N)=O)C(=O)N[C@H](C(=O)N[C@@H](Cc1ccc(O)cc1)C(N)=O)[C@@H](C)O)C(C)C)[C@@H](C)O` [Example 94] (H-K([γGlu-C20 diacid])CNTATCATQRLAAFLRHSSPNFGAIPSSTNVGPNTY-NH2; disulfide 2-7 (inferred)): the IC50 at rat calcitonin receptor came out at 111 nM; in experiment [1] it was 0.148 nM. Also, the “Ratio hCT/hAmylin binding” value in experiment [1] (setting [3]), in experiment [1] (setting [4]), in experiment [1] (setting [5]), in experiment [1] (setting [6]), in experiment [1] (setting [7]) and in experiment [1] (setting [8]) was 46.3 in each case. Moreover, the “Ratio hCT/hAmylin binding” value in experiment [1] (setting [9]) amounted to 46.3. For the same compound, the “Ratio hCT/hAmylin funct.” value in experiment [2] (hCTR funct. EC50 / hAmylin-R funct. EC50), in experiment [2] (setting [10]) and in experiment [2] (setting [12]) was 4.5 throughout. Also, the EC50 in experiment [2] was found to be 0.07 nM.
